# Measurements taken from ChEMBL document CHEMBL5465560, “Selectivity Literature for EUbOPEN Chemogenomic Library” (2024).
# Columns and labels:
# [1] = target: Interferon-induced, double-stranded RNA-activated protein kinase (Homo sapiens) (UniProt P19525); experiment: Selectivity interaction (Ambit KINOMEscan and KiNATiv profiling in Jurkat cells) EUB0000090b EIF2AK2; assay type: cell-based; settings: at 1 µM
# [2] = target: T1, Serine/threonine-protein kinase Chk1 (Homo sapiens) (UniProt O14757); settings: at 10 µM
# T1 sequence (whole entry): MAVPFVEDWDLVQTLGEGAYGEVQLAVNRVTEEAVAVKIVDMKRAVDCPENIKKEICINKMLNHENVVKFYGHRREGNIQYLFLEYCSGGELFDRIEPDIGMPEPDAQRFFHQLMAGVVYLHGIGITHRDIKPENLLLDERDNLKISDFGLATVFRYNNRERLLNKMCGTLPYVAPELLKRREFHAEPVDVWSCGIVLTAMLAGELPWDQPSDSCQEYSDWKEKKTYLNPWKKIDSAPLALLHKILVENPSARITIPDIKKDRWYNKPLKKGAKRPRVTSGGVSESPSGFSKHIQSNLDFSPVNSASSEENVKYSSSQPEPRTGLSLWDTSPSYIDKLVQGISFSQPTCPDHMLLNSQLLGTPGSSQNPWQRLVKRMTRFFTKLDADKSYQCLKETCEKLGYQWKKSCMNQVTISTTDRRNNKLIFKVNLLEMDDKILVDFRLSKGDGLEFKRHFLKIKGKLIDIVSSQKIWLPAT
# [3] = target: Proto-oncogene tyrosine-protein kinase Src (Homo sapiens, UniProt P12931); experiment: Selectivity interaction (KinomeScan (DiscoverX)) EUB0000229b SRC; settings: at 10 µM
# [4] = target: Transient receptor potential cation channel subfamily M member 6 (Homo sapiens) (UniProt Q9BX84); experiment: Selectivity interaction (KinomeScan (DiscoverX)) EUB0000229b TRPM6; settings: at 10 µM
# [5] = target: Macrophage colony-stimulating factor 1 receptor (Homo sapiens) (UniProt P07333); experiment: Selectivity interaction (ProQinase) EUB0000171b CSF1R
# [6] = target: Tyrosine-protein kinase Fyn (Homo sapiens) (UniProt P06241); experiment: Selectivity interaction (KinomeScan (DiscoverX)) EUB0000666a FYN; settings: at 10 µM
# [7] = target: Serine/threonine-protein kinase Nek7 (Homo sapiens) (UniProt Q8TDX7); experiment: Selectivity interaction (KinomeScan (DiscoverX)) EUB0000666a NEK7; settings: at 10 µM
# [8] = target: T2, Serine/threonine-protein kinase DCLK2 (Homo sapiens) (UniProt Q8N568); experiment: Selectivity interaction (Kinase screening (Nanosyn)) EUB0000604a DCLK2
# T2 sequence (whole entry): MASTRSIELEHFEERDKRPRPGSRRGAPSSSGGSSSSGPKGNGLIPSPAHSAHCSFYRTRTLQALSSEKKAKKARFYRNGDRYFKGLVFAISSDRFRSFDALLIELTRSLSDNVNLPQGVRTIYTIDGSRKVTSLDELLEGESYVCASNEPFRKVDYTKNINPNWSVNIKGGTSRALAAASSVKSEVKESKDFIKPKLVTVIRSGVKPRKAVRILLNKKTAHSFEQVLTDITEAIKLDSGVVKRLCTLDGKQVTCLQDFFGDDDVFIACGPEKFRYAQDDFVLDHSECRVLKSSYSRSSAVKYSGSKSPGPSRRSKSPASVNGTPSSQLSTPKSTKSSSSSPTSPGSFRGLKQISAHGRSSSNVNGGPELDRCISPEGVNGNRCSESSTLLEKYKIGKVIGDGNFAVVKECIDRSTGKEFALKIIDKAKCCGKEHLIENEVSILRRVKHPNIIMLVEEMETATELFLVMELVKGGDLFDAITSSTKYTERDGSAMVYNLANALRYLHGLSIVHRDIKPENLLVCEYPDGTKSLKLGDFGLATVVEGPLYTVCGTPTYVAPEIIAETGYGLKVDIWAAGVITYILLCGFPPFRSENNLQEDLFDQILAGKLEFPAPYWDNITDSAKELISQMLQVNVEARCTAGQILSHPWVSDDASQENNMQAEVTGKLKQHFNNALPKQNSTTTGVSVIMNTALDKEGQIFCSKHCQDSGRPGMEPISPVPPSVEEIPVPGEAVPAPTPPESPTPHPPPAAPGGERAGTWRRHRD
# [9] = target: T3, Testis-specific serine/threonine-protein kinase 1 (Homo sapiens) (UniProt Q9BXA7); experiment: Selectivity interaction (KinomeScan (DiscoverX)) EUB0000695a TSSK1B; settings: at 100 nM
# T3 sequence (whole entry): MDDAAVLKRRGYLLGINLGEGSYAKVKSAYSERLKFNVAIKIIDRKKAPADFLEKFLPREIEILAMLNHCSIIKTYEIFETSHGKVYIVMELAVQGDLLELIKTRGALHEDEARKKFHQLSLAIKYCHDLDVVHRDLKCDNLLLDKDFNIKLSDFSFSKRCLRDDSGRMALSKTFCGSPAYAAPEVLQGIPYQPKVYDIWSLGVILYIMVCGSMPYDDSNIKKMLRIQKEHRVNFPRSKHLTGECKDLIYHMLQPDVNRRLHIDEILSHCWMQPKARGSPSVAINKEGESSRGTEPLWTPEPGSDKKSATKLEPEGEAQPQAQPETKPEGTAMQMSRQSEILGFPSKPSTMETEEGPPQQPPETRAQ
# Sequence of Macrophage colony-stimulating factor 1 receptor (Homo sapiens) (P07333 whole entry): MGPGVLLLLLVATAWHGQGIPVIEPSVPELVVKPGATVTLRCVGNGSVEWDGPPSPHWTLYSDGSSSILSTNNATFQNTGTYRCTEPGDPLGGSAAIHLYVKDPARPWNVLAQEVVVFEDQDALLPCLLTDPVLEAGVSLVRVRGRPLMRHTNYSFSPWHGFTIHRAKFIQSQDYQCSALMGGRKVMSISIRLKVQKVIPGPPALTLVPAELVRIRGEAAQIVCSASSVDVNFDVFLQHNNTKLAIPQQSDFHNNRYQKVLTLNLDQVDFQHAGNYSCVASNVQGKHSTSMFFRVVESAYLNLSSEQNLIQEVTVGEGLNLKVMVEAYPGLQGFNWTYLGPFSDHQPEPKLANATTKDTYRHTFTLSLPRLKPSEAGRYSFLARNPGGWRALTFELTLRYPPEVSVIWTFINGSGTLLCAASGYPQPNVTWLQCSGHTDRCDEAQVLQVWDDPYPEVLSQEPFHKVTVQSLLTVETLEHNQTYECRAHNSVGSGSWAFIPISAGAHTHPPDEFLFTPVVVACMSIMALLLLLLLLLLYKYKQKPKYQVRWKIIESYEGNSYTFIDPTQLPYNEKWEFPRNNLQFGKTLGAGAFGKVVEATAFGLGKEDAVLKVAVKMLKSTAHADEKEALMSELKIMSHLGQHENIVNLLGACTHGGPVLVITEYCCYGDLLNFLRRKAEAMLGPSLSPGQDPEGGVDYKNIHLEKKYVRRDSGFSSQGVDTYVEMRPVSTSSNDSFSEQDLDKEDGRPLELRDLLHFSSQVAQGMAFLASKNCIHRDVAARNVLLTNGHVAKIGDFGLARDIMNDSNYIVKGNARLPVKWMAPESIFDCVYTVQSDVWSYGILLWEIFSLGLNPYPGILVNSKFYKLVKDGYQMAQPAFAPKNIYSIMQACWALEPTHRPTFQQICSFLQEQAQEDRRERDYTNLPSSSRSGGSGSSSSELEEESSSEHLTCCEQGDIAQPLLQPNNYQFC
# Sequence of Interferon-induced, double-stranded RNA-activated protein kinase (Homo sapiens) (P19525 whole entry): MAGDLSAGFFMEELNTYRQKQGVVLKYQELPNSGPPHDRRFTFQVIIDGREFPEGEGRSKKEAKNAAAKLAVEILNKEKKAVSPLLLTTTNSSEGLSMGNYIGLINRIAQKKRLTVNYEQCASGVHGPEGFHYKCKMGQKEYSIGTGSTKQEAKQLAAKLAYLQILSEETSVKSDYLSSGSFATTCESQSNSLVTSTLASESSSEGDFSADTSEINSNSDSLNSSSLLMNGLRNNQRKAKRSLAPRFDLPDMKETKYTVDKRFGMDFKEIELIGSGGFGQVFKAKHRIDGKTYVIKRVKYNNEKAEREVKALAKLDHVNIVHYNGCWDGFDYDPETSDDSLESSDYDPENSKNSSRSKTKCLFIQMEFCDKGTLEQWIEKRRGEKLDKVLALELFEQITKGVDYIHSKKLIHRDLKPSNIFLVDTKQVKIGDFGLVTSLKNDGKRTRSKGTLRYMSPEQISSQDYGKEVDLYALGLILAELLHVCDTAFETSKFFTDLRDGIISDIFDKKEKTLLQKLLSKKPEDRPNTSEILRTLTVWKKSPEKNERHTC
# Sequence of Transient receptor potential cation channel subfamily M member 6 (Homo sapiens) (Q9BX84 whole entry): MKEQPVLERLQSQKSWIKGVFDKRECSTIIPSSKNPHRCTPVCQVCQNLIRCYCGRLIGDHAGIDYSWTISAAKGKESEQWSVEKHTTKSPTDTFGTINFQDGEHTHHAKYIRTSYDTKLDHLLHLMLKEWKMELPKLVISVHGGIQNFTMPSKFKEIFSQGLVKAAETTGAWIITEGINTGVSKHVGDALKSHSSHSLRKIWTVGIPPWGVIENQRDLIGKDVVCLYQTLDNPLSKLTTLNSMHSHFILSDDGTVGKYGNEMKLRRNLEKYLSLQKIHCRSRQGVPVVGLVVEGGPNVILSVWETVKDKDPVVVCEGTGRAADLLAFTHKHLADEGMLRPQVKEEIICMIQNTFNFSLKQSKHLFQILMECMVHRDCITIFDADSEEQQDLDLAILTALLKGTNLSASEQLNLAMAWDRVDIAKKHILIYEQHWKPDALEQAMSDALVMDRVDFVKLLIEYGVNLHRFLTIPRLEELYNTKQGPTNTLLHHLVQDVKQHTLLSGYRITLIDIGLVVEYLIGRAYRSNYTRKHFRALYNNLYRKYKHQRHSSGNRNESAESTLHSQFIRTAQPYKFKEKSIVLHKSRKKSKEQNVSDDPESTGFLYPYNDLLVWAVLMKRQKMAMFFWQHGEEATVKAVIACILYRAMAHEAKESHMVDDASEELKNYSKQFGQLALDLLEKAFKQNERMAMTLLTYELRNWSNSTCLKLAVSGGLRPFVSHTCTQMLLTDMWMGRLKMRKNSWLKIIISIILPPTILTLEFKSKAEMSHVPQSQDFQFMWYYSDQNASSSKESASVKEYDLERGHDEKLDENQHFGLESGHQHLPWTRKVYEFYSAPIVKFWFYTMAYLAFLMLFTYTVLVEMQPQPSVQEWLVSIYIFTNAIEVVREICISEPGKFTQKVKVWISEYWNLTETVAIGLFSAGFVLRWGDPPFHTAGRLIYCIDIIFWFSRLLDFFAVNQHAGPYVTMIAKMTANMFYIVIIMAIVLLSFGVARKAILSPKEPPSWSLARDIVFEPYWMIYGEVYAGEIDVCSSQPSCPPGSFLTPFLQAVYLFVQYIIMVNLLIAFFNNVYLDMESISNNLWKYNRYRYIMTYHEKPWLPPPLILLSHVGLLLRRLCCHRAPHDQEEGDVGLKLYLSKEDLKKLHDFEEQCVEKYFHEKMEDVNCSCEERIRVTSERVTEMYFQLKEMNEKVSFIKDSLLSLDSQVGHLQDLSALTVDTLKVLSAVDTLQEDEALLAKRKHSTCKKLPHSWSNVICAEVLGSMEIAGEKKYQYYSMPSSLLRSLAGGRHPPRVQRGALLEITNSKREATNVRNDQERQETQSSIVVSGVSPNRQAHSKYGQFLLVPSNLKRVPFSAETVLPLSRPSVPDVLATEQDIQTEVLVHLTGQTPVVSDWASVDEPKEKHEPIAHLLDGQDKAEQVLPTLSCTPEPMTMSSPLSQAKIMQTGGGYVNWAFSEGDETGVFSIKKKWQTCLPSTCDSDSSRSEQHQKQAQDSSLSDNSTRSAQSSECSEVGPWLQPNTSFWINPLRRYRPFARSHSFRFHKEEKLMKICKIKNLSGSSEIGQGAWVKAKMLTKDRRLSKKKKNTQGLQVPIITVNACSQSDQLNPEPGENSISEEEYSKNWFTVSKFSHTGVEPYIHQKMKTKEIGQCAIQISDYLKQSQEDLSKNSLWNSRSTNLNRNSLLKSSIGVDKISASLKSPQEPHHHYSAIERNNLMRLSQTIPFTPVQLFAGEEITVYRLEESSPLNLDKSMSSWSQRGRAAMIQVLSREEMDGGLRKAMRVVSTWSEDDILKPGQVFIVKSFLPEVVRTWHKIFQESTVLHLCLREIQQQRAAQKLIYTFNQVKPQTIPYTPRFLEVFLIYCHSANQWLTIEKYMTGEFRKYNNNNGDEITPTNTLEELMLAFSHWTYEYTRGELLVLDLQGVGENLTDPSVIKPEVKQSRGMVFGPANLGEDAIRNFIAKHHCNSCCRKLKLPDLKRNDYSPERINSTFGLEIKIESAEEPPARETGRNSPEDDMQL
# Sequence of Proto-oncogene tyrosine-protein kinase Src (P12931 2-536 limits assumed): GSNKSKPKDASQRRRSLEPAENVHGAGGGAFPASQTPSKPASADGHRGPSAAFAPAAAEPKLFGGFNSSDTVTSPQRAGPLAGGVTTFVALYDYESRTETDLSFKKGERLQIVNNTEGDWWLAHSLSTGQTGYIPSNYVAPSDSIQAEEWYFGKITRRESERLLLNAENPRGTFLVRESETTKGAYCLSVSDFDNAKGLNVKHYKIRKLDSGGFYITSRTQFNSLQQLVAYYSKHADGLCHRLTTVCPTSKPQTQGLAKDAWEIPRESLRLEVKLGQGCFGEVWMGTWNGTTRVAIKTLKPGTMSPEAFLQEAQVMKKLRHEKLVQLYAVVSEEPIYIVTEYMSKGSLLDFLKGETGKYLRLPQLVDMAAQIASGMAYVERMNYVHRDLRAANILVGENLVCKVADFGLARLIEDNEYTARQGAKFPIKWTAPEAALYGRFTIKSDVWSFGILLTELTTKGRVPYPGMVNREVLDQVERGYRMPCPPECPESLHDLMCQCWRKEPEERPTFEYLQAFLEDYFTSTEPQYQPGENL
# Sequence of Tyrosine-protein kinase Fyn (Homo sapiens) (P06241 2-537 limits assumed): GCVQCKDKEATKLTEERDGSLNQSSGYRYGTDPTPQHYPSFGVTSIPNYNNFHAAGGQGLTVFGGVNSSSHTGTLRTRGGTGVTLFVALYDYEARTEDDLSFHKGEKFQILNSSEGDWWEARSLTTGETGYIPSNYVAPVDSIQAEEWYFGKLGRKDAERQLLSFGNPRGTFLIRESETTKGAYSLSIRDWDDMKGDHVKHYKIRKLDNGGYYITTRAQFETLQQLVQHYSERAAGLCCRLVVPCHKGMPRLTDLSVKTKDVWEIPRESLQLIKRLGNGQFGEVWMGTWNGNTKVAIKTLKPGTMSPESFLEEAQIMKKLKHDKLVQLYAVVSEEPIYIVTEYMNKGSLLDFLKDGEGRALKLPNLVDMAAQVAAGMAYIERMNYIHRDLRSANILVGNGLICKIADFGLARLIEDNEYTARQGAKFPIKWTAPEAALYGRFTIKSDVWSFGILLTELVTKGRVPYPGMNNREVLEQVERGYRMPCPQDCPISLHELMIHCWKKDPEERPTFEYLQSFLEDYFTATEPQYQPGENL
# Sequence of Serine/threonine-protein kinase Nek7 (Homo sapiens) (Q8TDX7 whole entry, looked up): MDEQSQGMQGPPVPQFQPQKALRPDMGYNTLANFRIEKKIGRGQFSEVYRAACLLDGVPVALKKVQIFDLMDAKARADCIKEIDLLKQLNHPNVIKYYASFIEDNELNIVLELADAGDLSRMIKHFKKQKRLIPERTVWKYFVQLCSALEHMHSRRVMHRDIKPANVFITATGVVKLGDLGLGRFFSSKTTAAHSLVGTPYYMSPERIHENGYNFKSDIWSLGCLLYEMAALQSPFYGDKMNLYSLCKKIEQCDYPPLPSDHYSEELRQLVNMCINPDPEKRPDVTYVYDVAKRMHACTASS
structure (smiles),measurement,setting,value
CN(C)C/C=C/C(=O)Nc1ccc(C(=O)N2CCCC(Nc3ncc(Cl)c(-c4c[nH]c5ccccc45)n3)C2)cc1 (stereo not given),% of control,[1],92%
Cc1cc([C@@H](C)Nc2ccccc2C(=O)O)c2nc(N3CCOCC3)cc(=O)n2c1 [AZD-6482],% of control,[2],100%
COc1cc(N(C)c2ccnc3ccc(C(F)(F)F)cc23)cc(OC)c1OC,% binding,[3],100%
same,% binding,[4],100%
C=CC(=O)Nc1cccc(C(=O)Nc2ccc(Nc3cc(-c4[nH]c(SC)nc4C)ccn3)cc2)c1,% of control,[5]; at 1 µM,106%
same,% of control,[5]; at 5 µM,69%
O=C(NOC[C@H](O)CO)c1ccc(F)c(F)c1Nc1ccc(I)cc1F,% of control,[6],64%
same,% of control,[7],95%
Cc1cnc(Nc2ccc(F)cc2Cl)nc1-c1c[nH]c(C(=O)N[C@H](CO)c2cccc(Cl)c2)c1,% of inhibition,[8],1%
Cc1cc(F)c(C(=O)Nc2cccc(-c3nncn3C(C)C)n2)cc1-n1cnc(C2CC2)c1,% of control,[9],100%
